Results as given in patent US8901118B2, “Compounds and methods for kinase modulation, and indications therefor” (Plexxikon Inc., priority 2010, dated 2014).

What was measured:
[1] = Relative solubility by turbidity in aqueous buffers (pH 1.5, 4.5, 6.8, 7.4); type: physicochemical; conditions: for turbidity threshold (L, M, H) 1.4: pH 1.5 (SGF); for turbidity threshold (L, M, H) 4.5: pH 4.5 (SIF); for turbidity threshold (L, M, H) 6.8: pH 6.8 (SIF); for turbidity threshold (L, M, H) 7.4: pH 7.4 (HEPES)
Method in brief: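 Reported value: concentration at which optical density at 490, 535 and 650 nm passes 0.01, taken as the mean of the three wavelengths. Buffers were 0.5M NaCl pH 1.5, 0.05M NaH2PO4 pH 4.5 or 6.8, and 10 mM HEPES/150 mM NaCl pH 7.4, each receiving serial 1:1 DMSO dilutions of a 25 mM stock.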

MV-4-11 cells = test: MV-4-11 (leukemia) cell proliferation assay (ATPlite); type: cell-based; conditions: Homo sapiens, MV4-11, read-out: Inhibition of Cell Proliferation IC50, MV-4-11
Method in brief: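 For these proliferation assays, engineered BaF3 cells (10,000/well, IL-3 withdrawn) and MV-4-11 cells (25,000/well) received compound serially diluted 1:3 from 10 μM over 8 points, with DMSO as control. After three days of culture, ATP content was measured by luminescence to derive IC50.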

SKNSH cells = test: SKNSH (human neuroblastoma) cell proliferation assay (ATPlite); type: cell-based; conditions: SK-N-SH, read-out: Inhibition of Cell Proliferation IC50, SKNSH
Method in brief: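 Fms/Trk inhibitor efficacy was tested by proliferation of SKNSH neuroblastoma cells. After 3 days of compound exposure at 37° C. in 5% CO2, 20 μL per well of ATPlite 1 step reagent was added, plates sat 10 minutes at room temperature, and luminescence, proportional to cell number, was read on a Safire reader to derive IC50.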

## CCOc1ncnc2[nH]cc(Cc3ccc(Nc4ccc(C)nc4)nc3F)c12 [Compound P-4017, [5-(4-Ethoxy-7H-pyrrolo[2,3-d]pyrimidin-5-ylmethyl)-6-fluoro-pyridin-2-yl]-(6-methyl-pyridin-3-yl)-amine]
[1]
  turbidity threshold (L, M, H) 1.4: M (moderate solubility if the threshold concentration is 31.3 μM to 250 μM)
  turbidity threshold (L, M, H) 4.5: M (moderate solubility if the threshold concentration is 31.3 μM to 250 μM)
  turbidity threshold (L, M, H) 6.8: M (moderate solubility if the threshold concentration is 31.3 μM to 250 μM)
  turbidity threshold (L, M, H) 7.4: L (low solubility if the threshold concentration is <31.3 μM)
MV-4-11 cells
  IC50: < 1 µM
SKNSH cells
  IC50: < 1 µM

## CCOc1ncnc2[nH]cc(Cc3ccc(Nc4ccc(OC)nc4)nc3F)c12 [Compound P-4018, [5-(4-Ethoxy-7H-pyrrolo[2,3-d]pyrimidin-5-ylmethyl)-6-fluoro-pyridin-2-yl]-(6-methoxy-pyridin-3-yl)-amine]
[1]
  turbidity threshold (L, M, H) 1.4: M (moderate solubility if the threshold concentration is 31.3 μM to 250 μM)
  turbidity threshold (L, M, H) 4.5: L (low solubility if the threshold concentration is <31.3 μM)
  turbidity threshold (L, M, H) 6.8: L (low solubility if the threshold concentration is <31.3 μM)
  turbidity threshold (L, M, H) 7.4: L (low solubility if the threshold concentration is <31.3 μM)
MV-4-11 cells
  IC50: < 1 µM
SKNSH cells
  IC50: < 1 µM

## COCCOc1ncnc2[nH]cc(Cc3ccc(Nc4ccc(OC)nc4)nc3F)c12 [Compound P-4019, {6-Fluoro-5-[4-(2-methoxy-ethoxy)-7H-pyrrolo[2,3-d]pyrimidin-5-ylmethyl]-pyridin-2-yl}-(6-methoxy-pyridin-3-yl)-amine]
[1]
  turbidity threshold (L, M, H) 1.4: M (moderate solubility if the threshold concentration is 31.3 μM to 250 μM)
  turbidity threshold (L, M, H) 4.5: L (low solubility if the threshold concentration is <31.3 μM)
  turbidity threshold (L, M, H) 6.8: L (low solubility if the threshold concentration is <31.3 μM)
  turbidity threshold (L, M, H) 7.4: L (low solubility if the threshold concentration is <31.3 μM)
MV-4-11 cells
  IC50: < 1 µM
SKNSH cells
  IC50: > 1 µM
